Measured values published in patent publication US10624917B2, “Compositions and methods useful for treating or preventing liver diseases or disorders, and promoting weight loss” (YALE UNIVERSITY, priority 2014, dated 2020).

Columns and labels:
Assay type in all cases: cell-based, mouse
[1] = tested on: IL-1β production in bone marrow derived macrophages; assay: IL-1β secretion by LPS/ATP-stimulated bone marrow derived macrophages; settings: LPS and ATP
Experimental: FIGS. 6A-6B illustrate the finding that bone marrow macrophages and liver Kupffer cells increase IL-1β in response to adenosine signaling. FIG. 6A: Murine bone marrow derived macrophages (BMDM) were primed with LPS for 16 hours, treated with NECA (10 μM) for 1 hour, and then pulsed with ATP. FIG. 6b: Primary murine liver Kupffer cells were primed with LPS for 16 hours, treated with NECA (10 μM) for 1 hour, and then pulsed with ATP. IL-1β secretion was measured in supernatants 5 hours after pulsing with ATP. Data are expressed as the mean±SD from at least three independent experiments. *p<0.05 determined by Student's t-test.
C57BL/6 mice were purchased from the National Cancer Institute. ASC−/−, Caspase-1−/−, Nlrp3−/− and P2xr7−/− mice have been described (Rock et al., 2010, Annu Rev Immunol. 28:321-42). A2ora2a flox/flox mice and LysMcre mice were purchased from Jackson Laboratories. HIF-1a flox/flox mice were kindly provided by Dr. Ruslan M Medzhitov (Yale University). 7- to 12-week-old males with a variety of genetic manipulations were used in most experiments. […]
Primed PECs were both pulsed for 20 min with 5 mM ATP or 10 μM nigericin, and left untreated until culture supernatants were collected. Secretion of IL-1β was determined by enzyme-linked immunoabsorbent assay (ELISA; R&D Systems).

[2] = tested on: Il1b and other genes in PECs; assay: Quantitative real-time RT-PCR gene expression in PECs; settings: for ability to supersede LPS tolerance for TIMP-1, VEGF and GLUT-1 gene expression / expression level of IL6 / expression level of Il1b / expression level of Il4: LPS primed PECs; for expression level of IL6 / expression level of Il1b / expression level of Il4: over 6 and 24 hours; for Il1b mRNA expression: PECs pretreated with LPS for 16 hours (LPS tolerant)
Experimental: FIGS. 3A-3I illustrate the finding that adenosine supersedes LPS induced tolerance and increases IL-1β production by upregulating transcription of pro-IL-1β via cAMP-PKA pathway. PECs were used in all of the following experiments. FIG. 3A: Primed (pri) with LPS (100 ng/ml) for 16 hours followed by stimulation (stim) with LPS (100 ng/ml), or NECA (10 μM) or CGS21680 (10 μM) in the presence or absence of LPS (100 ng/ml) for 6 hours. FIG. 3B: Treated with forskolin for 6 hours as indicated doses with and without LPS priming FIG. 3C: Treated with or without NECA (10 μM), CGS21680 (10 μM) or db-cAMP (200 μM) for 6 hours. FIG. 3D: LPS primed and treated with NECA or CGS21680 in the presence and absence of SQ22536, H89 and PKi. FIG. 3E: Primed with LPS for 16 hours and treated with ATP for 20 min, followed by CGS 21680 in the presence or absence of the adenylyl cyclase and PKA inhibitors SQ22536 and H-89. FIG. 3F: Primed with LPS and treated with or without NECA (10 μM) or db-cAMP (200 μM) for 6 hours. FIG. 3G: Treated with or without CGS21680 (10 μM) for 3 hours, and transcription was stopped by adding […] actinomycin D, and RNA samples collected at indicated times-points. FIG. 3H: LPS primed PECs obtained from wild type or A2AR-cKO mice were stimulated with NECA (10 μM) for 6 hours. The cells were harvested and RNA isolated after each treatment and the gene expression of Il1b and other genes as indicated quantified by real-time PCR using specific primers. FIG. 3I: Primed with LPS for 16 hours and treated with ATP for 20 min, followed by CGS 21680 in the presence or absence of SQ22536 or H-89 Immunoblot analysis of the proIL-1β caspase-1 in cell lysate was performed by specific […] and anti caspase-1 p10 antibodies (FIGS. 3C, 3E-3F, 3I). Data are expressed as the mean±SD from three independent experiments Immunoblots shown are representative results from at least three independent experiments. *p<0.05 determined by Student's t-test.
FIGS. 9A-9H illustrate changes in expression of cytokines and tissue repair genes in peritoneal macrophages in response to adenosine agonists. LPS naive or LPS primed PECs were stimulated with LPS (100 ng ml^−1), CGS21680 (10 μM) or NECA (10 μM) at different time points as indicated. The cells were harvested and RNA isolated after each treatment, and the gene expression of ProIL-1β (Il1b) (FIG. 9A), IL-6 (Il6) (FIG. 9B), IL-4 (Il4) (FIG. 9C), TNF-α (tnfa) (FIG. 9D), TIMP-1 (Timp1) (FIG. 9E), VEGF (vegf) (FIG. 9F), PGK-1 (Pgk1) (FIG. 9G), GLUT-1 (Slc2a1) (FIG. 9H) quantified by real-time PCR using each specific gene primer set as listed. Data are expressed as the mean±SD from three independent experiments. *p<0.05 determined by Student's t-test.
Total RNA was extracted using TRIZOL reagent (Invitrogen), and cDNA was generated with an oligo (dT) primer and the Superscript II system (Invitrogen, USA) followed by analysis using LightCycler 480 system (Roche). q-PCR was performed for Il1b using commercial primer-probe sets (Applied Biosystems Inc.) with DNA master Mix (Roche). Expression of GAPDH was used to standardize the samples, and the results were expressed as a ratio relative to control; q-PCR was performed for tnfa, 116, Txnip, Nlrp3, Hif1a, Timp1, using LightCycler 480 SYBR Green I master mix (Roche). Results were normalized based on the expression of β-actin.

[3] = tested on: Il1b and other genes in PECs; assay: as above; settings: peritoneal macrophages, FIG. 2E

Row | SMILES | IL-1β production [1] | ability to supersede LPS tolerance for TIMP-1, VEGF and GLUT-1 gene expression [2] | expression level of IL6 [2] | expression level of Il1b [2] | expression level of Il4 [2] | Il1b mRNA expression [2] | induction of Il1b mRNA expression [3] | Il1b transcript stability (rate of loss of Il1b mRNA) ([2]; transcription stopped with actinomycin D)
1 | CCNC(=O)[C@H]1O[C@@H](n2cnc3c(N)ncnc32)[C@H](O)[C@@H]1O [NECA, 5′-(N-ethylcarboxamido) adenosine] | significantly increased | consistent ability | increase | increase | increase | dramatic increase |  | 
2 | CCNC(=O)[C@H]1O[C@@H](n2cnc3c(N)nc(NCCc4ccc(CCC(=O)O)cc4)nc32)[C@H](O)[C@@H]1O [CGS21680] |  | consistent ability | increase | increase | increase | dramatic increase | increases | did not affect transcript stability
